According to patent US8653304B2, “2,3-dihydro-1H-indene-2-yl urea derivative and pharmaceutical application of same” (Toray Industries, Inc., priority 2009, dated 2014):

Experiments:
Assay type in all cases: in vivo
[1] = test system: hyperalgesia in Chung model; assay: Hyperalgesia in neuropathic pain model (Chung model), plantar test; settings: SD rat, Chung model day 15, oral 100 mg/kg, 90 minutes after administration; FIG. 3
Excerpt: (§1) The action of Compound (I) on hyperalgesia in pain models was studied. As the pain models, models partially modified from an inflammatory pain model (a carrageenin paw edema pain model) and neuropathic pain models (Bennett model and Chung model) described in documents (Anesth. Analg., 2009, Vol. 108, pp. 1680-1687; Pain, 1988, Vol. 33, pp. 87-107; and Pain, 1992, Vol. 50, pp. 355-363) were used.
The Bennett model was produced by lightly ligating the sciatic nerve in the left thigh of each Crl:CD (SD) rat (male, 6-week old, Charles River Laboratories Japan, Inc.) at 4 points with chromic catgut (4-0). Fourteen days after the Bennett model was produced, each test compound was orally administered, and plantar test was performed 90 minutes after the administration. The plantar test was carried out by measuring the pain threshold (sec) of the left footpad (model foot) using a plantar thermal stimulation device (Plantar test 7370, Ugo Basile) wherein the thermal stimulus intensity was set to 60. Each test compound was suspended in 0.5 w/v % methylcellulose (Wako Pure Chemical Industries, Ltd.) and the obtained solution was orally administered. Compound 46b described in the Examples was administered at a dose of 100 mg/kg, and gabapentin (Toronto Research Chemicals), which is an anticonvulsant, was administered as a comparative control agent at a dose of 100 mg/kg. […]

[2] = test system: hyperalgesia in Bennett model; assay: Hyperalgesia in neuropathic pain model (Bennett model), plantar test; settings: SD rat, Bennett model day 14, oral 100 mg/kg, 90 minutes after administration; FIG. 2
Excerpt: as §1
The Bennett model was produced by lightly ligating the sciatic nerve in the left thigh of each Crl:CD (SD) rat (male, 6-week old, Charles River Laboratories Japan, Inc.) at 4 points with chromic catgut (4-0). Fourteen days after the Bennett model was produced, each test compound was orally administered, and plantar test was performed 90 minutes after the administration. The plantar test was carried out by measuring the pain threshold (sec) of the left footpad (model foot) using a plantar thermal stimulation device (Plantar test 7370, Ugo Basile) wherein the thermal stimulus intensity was set to 60. Each test compound was suspended in 0.5 w/v % methylcellulose (Wako Pure Chemical Industries, Ltd.) and the obtained solution was orally administered. Compound 46b described in the Examples was administered at a dose of 100 mg/kg, and gabapentin (Toronto Research Chemicals), which is an anticonvulsant, was administered as a comparative control agent at a dose of 100 mg/kg.

[3] = test system: skin swelling response in type I allergic dermatitis model; assay: Skin swelling response in type I allergic dermatitis model; settings: BALB/c mouse, 20 μL of 0.5 w/v % solution applied to auricle 1 hour before induction
Excerpt: (§2) The action of Compound (I) on skin swelling response in mouse allergic dermatitis models was studied. As the allergic dermatitis models, models partially modified from a type I allergic dermatitis model and a type IV allergic dermatitis model described in documents (Inflamm. Res., 1998, Vol. 47, pp. 506-511 and Int. Arch. Allergy. Appl. Immunol., 1990, Vol. 92, pp. 356-360) were used.
To each BALB/c mouse (female, 7-week old, Charles River Laboratories Japan, Inc.), mouse IgE anti-DNP antibody (0.05 mg/body, […] CORPORATION) was intravenously administered to passively sensitize the mouse. Twenty four hours after the sensitization, 20 μL of 0.38% DNFB (SIGMA) dissolved in acetone:olive oil (4:1) was applied to the auricle of the mouse to induce inflammation. From after the induction to 24 hours, the thickness of the auricle was measured with time using a Digimatic Indicator (Mitutoyo). Each test compound was dissolved in ethanol, and 20 μL of 0.5 w/v % solution was applied to the auricle at 1 hour before the induction.
The swelling ratio of the auricle was calculated according to the following equation. […] Auricular Swelling Ratio(%)=(A−B)/B×100

[4] = test system: skin swelling response in type IV allergic dermatitis model; assay: Skin swelling response in type IV allergic dermatitis model; settings: BALB/c mouse, 24 hours after induction
Method: as §2
To the back of each BALB/c mouse (female, 7-week old, Charles River Laboratories Japan, Inc.), 25 μL of 0.5% DNFB solution dissolved in acetone:olive oil (4:1) was applied. On the next day, the same operations were repeated to actively sensitize the mouse. Four days after the sensitization, 20 μL of 0.2% DNFB solution dissolved in acetone:olive oil (4:1) was applied to the auricle of the sensitized mouse to induce inflammation. Twenty four hours after the induction, the thickness of the auricle was measured using a Digimatic Indicator (Mitutoyo). Each test compound was dissolved in ethanol and 20 μL of 0.5 w/v % solution was applied to the auricle at 1 hour before the induction; or each test compound was suspended in 0.5% methylcellulose (Wako Pure Chemical Industries, Ltd.) and the resulting solution was orally administered at 30 mg/kg at 1 hour before the induction. The swelling ratio of the auricle was calculated according to the following equation: Auricular Swelling Ratio(%)=(A−B)/B×100

[5] = test system: hyperalgesia in Chung model; assay: Hyperalgesia in neuropathic pain model (Chung model), von Frey test; settings: SD rat, Chung model day 7, oral 100 mg/kg, 90 minutes after administration
Excerpt: as §1
The Chung model was produced by completely ligating the L5 and L6 spinal nerves of each Crl:CD (SD) rat (male, 6-week old, Charles River Laboratories Japan, Inc.) with a silk suture (5-0). Seven days after the Chung model was produced, each test compound was orally administered, and von Frey test was performed 90 minutes after the administration. In addition, fifteen days after the Chung model was produced, each test compound was orally administered, and plantar test was performed 90 minutes after the administration. The von Frey test was carried out by measuring the pain threshold (g) of the left footpad (model foot) using Dynamic Plantar Aesthesiometer (37400, Ugo Basile) wherein the maximum pressure was set to 30.0 g and the time required to reach the maximum pressure was set to 40 seconds. The plantar test was carried out by the method described above. […]

TNFα production = assay: Mouse LPS-induced cytokine production model; settings: BALB/c mouse, 50 mg/kg oral 30 minutes before LPS 1 mg/kg i.p., serum 60 minutes after LPS
Method: The action of Compound (I) on the TNFα production induced by LPS administration in a mouse was studied by a method partially modified from the method described in Journal of Immunology (1992, Vol. 148, pp. 1890-1897).
To each BALB/c mouse (male, 7 to 9-week old, Charles River Laboratories Japan, Inc.), LPS (0111:B4, SIGMA) was intraperitoneally administered at a dose of 1 mg/kg. Sixty minutes after the LPS administration, blood was collected from the abdominal vena cava under anesthesia and centrifuged for 15 minutes at 4° C. to obtain a serum. For the measurement of TNF-α in the serum, ELISA Development System (R&D Systems) was used. Each test compound was dissolved in DMSO (Final Concentration: 2%), and then the obtained solution was dissolved in a 27% aqueous solution of 2-hydroxypropyl-β-cyclodextrin (hereinafter referred to as “HP-β-CD”; Nihon Shokuhin Kako Co., Ltd.). Thirty minutes before the LPS administration, the resulting solution was orally administered at 50 mg/kg.

## COc1c(NC(=O)N[C@@H]2Cc3ccccc3[C@@H]2O)cc(C(C)(C)C)cc1[C@@H](O)C(F)(F)F [Compound 46b, 1-(5-tert-butyl-2-methoxy-3-((R)-2,2,2-trifluoro-1-hydroxyethyl)phenyl)-3-((1S,2R)-1-hydroxy-2,3-dihydro-1H-indene-2-yl)urea]
[1]
  pain threshold (sec), plantar test, compared to solvent-administered group: significantly elevated
[2]
  pain threshold (sec), plantar test, compared to solvent-administered group: significantly elevated
[3]
  suppression ratio on immediate response (auricular swelling AUC 0-4 hours): 94.4%
  suppression ratio on late response (auricular swelling AUC 5-10 hours): 93.1%
[4]; 30 mg/kg oral 1 hour before induction
  suppression ratio of auricular swelling, oral administration: 37.7%
[4]; 20 μL of 0.5 w/v % solution on auricle 1 hour before induction
  suppression ratio of auricular swelling, auricular application: 49.2%
[5]
  pain threshold, von Frey test: 7.0 ± 0.3 g
TNFα production
  Suppression Ratio of TNFα production: 100.0%
